Here are results for 19 molecules from patent publication US8697877B2, “Oxyindole derivatives with motilin receptor agonistic activity” (RaQualia Pharma Inc., priority 2009, dated 2014).

For orientation: EC50 means the concentration at which the effect is half-maximal. The low end stands for greater potency, the high end for weaker potency.

T1 sequence (O43193 whole entry): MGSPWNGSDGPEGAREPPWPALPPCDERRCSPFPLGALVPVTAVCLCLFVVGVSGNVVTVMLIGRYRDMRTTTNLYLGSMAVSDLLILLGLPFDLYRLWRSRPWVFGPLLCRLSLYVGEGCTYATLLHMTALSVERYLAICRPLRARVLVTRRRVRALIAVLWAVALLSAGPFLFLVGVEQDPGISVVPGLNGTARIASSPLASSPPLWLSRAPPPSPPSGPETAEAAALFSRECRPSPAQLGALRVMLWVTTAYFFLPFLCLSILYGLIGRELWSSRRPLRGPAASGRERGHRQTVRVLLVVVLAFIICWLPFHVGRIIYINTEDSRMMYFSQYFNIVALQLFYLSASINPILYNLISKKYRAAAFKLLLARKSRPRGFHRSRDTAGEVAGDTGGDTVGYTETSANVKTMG

One experiment has as its target T1, human motilin receptor (GPR38) (Homo sapiens, UniProt O43193).
T1 construct: expressed in transfected cells; host or cells: CHO-K1
As to the kind of experiment: GPR38 (Motilin Receptor) Functional Assay, NFAT-beta-lactamase reporter in CHO-K1 cells.
Settings: not given
It is filed as cell-based. As for the experimental part: The potencies and efficacies of the compounds of this invention for GPR38 can be determined by reporter assay performed on the human cloned receptor as described herein.
GPR38 (Motilin Receptor) Functional Assay
A CHO-K1 cell line stably transfected NFAT-beta-lactamase reporter and human motilin receptor gene was used. The cells were cultured in culture medium (Dulbecco's modified eagle medium containing 10% fetal bovine serum, 1 mM sodium pyruvate, 0.1 mM MEM nonessential amino acids, 25 mM HEPES buffer, 50 units/mL penicillin, 50 microg/mL streptomycin, 100 microg/mL zeocin, and 500 microg/mL G418). The cells were harvested with 0.05% trypsin EDTA and centrifuged. The cell pellets were resuspended in the culture medium and plated into a black/clear bottom 384-well plate at a density of 8000 cells per well, then incubated at 37° C. with 5% CO2 for over night (about 20 hours). On the day of assay, the culture medium was aspirated and 20 microL of assay medium (Dulbecco's modified eagle medium containing 100 units/mL penicillin and 100 microg/mL streptomycin) was added to each well, then the cell plates were placed in incubator at 37° C. with 5% CO2 for 1.5 hours. Compounds were prepared in 100% DMSO and these were diluted to 5× of final concentration with assay buffer (Hanks balanced salt solution, 20 mM HEPES, and 0.1% BSA), then dispensed into 384-well plate (5 microL/well). After incubation at 37° C. with 5% CO2 for 4.5 hours, CCF4-AM loading solution (Invitrogen Corp.) was added to each well. After incubation for 2 hours at room temperature, fluorescence intensities were measured by using plate reader FDSS (Hamamatsu Photonics K. K.) with excitation 400 nm, emission 465 nm/540 nm. Agonistic activity (EC50) was calculated from the sigmoidal dose-response curve using GraphPad Prism software (GraphPad Software, Inc.).
Molecule `CN[C@H]1CCN(C(=O)N[C@@H](Cc2ccc(Cl)cc2)C(=O)N2CCC(N3C(=O)C(C)(C)c4ccccc43)CC2)C1` [Example 94, (S)-N-((S)-3-(4-chloro-phenyl)-1-(4-(3,3-dimethyl-2-oxoindolin-1-yl)piperidin-1-yl)-1-oxopropan-2-yl)-3-(methylamino)pyrrolidine-1-carboxamide] had an EC50 not above 10 nM.
`CN(C[C@@H]1CCCN1)C(=O)N[C@@H](CCc1ccccc1)C(=O)N1CCC(N2C(=O)C(C)(C)c3ccccc32)CC1` [Example 50, 3-((S)-1-(4-(3,3-dimethyl-2-oxo-indolin-1-yl)piperidin-1-yl)-1-oxo-4-phenylbutan-2-yl)-1-methyl-1-((S)-pyrrolidin-2-ylmethyl)urea]: the EC50 is not above 10 nM.
`CN[C@@H]1CC[C@H](C(=O)N[C@H](CC(=O)N2CCC(N3C(=O)C(C)(C)c4ccccc43)CC2)Cc2ccccc2)C1` [Example 43, (1S,3R)-N-((S)-4-(4-(3,3-dimethyl-2-oxoindolin-1-yl)piperidin-1-yl)-4-oxo-1-phenylbutan-2-yl)-3-(methylamino) cyclopentanecarboxamide] came in with an EC50 not above 10 nM.
For the molecule `CN[C@@H]1CC[C@H](C(=O)N[C@@H](Cc2cccc(C(F)(F)F)c2)C(=O)N2CCC(N3C(=O)C(C)(C)c4ccccc43)CC2)C1` [Example 35, (1S,3R)-N-((S)-1-(4-(3,3-dimethyl-2-oxoindolin-1-yl)piperidin-1-yl)-1-oxo-3-(3-(trifluoromethyl)phenyl)propan-2-yl)-3-(methylamino)cyclo-pentanecarboxamide], the EC50 was not above 10 nM.
The molecule `CN[C@@H]1CC[C@H](C(=O)N[C@@H](Cc2ccccc2C)C(=O)N2CCC(N3C(=O)C(C)(C)c4ccccc43)CC2)C1` [Example 26, (1S,3R)-N-((S)-1-(4-(3,3-dimethyl-2-oxoindolin-1-yl)piperidin-1-yl)-1-oxo-3-o-tolylpropan-2-yl)-3-(methyl-amino)cyclopentanecarboxamide] showed an EC50 not above 10 nM.
In turn, `CN1CCC[C@H]1CNC(=O)N[C@@H](CCc1ccccc1)C(=O)N1CCC(N2C(=O)C(C)(C)c3ccccc32)CC1` [Example 68, 1-((S)-1-(4-(3,3-dimethyl-2-oxo-indolin-1-yl)piperidin-1-yl)-1-oxo-4-phenylbutan-2-yl)-3-(((S)-1-methylpyrrolidin-2-yl)methyl)urea] gave an EC50 not above 10 nM.
Still for that read-out and setting: as for `CN[C@H]1CCN(C(=O)N[C@@H](CCc2ccccc2)C(=O)N2CCC(N3C(=O)C(C)(C)c4ccccc43)CC2)C1` [Example 47, (S)—N—((S)-1-(4-(3,3-dimethyl-2-oxoindolin-1-yl)piperidin-1-yl)-1-oxo-4-phenylbutan-2-yl)-3-(methylamino)pyrrolidine-1-carboxamide], the figure is not above 10 nM; as for `CN[C@@H]1CC[C@H](C(=O)N[C@@H](Cc2ccc(C(F)(F)F)cc2)C(=O)N2CCC(N3C(=O)C(C)(C)c4ccccc43)CC2)C1` [Example 36, (1S,3R)-N-((S)-1-(4-(3,3-dimethyl-2-oxoindolin-1-yl)piperidin-1-yl)-1-oxo-3-(4-(trifluoromethyl)phenyl)propan-2-yl)-3-(methylamino)cyclo-pentanecarboxamide], not above 10 nM.
In turn, `CN[C@@H]1CC[C@H](C(=O)N[C@@H](Cc2ccccc2Cl)C(=O)N2CCC(N3C(=O)C(C)(C)c4ccccc43)CC2)C1` [Example 25, (1S,3R)-N-((S)-3-(2-chlorophenyl)-1-(4-(3,3-dimethyl-2-oxoindolin-1-yl)piperidin-1-yl)-1-oxopropan-2-yl)-3-(methylamino)cyclopentane-carboxamide] registered an EC50 not above 10 nM.
As for `CC1(C)C(=O)N(C2CCN(C(=O)[C@H](CCc3ccccc3)NC(=O)N[C@@H]3CCNC3)CC2)c2ccccc21` [Example 52, 1-((S)-1-(4-(3,3-dimethyl-2-oxo-indolin-1-yl)piperidin-1-yl)-1-oxo-4-phenylbutan-2-yl)-3-((R)-pyrrolidin-3-yl)urea], the EC50 was not above 10 nM.
As to `CNC(C)(C)CC(=O)N[C@@H](CCc1ccccc1)C(=O)N1CCC(N2C(=O)C(C)(C)c3ccccc32)CC1` [Example 13, (S)-N-(1-(4-(3,3-dimethyl-2-oxoindolin-1-yl)piperidln-1-yl)-1-oxo-4-phenylbutan-2-yl)-3-methyl-3-(methylamino) butanamide], the EC50 was not above 10 nM.
`CN[C@H]1CCN(C(=O)N[C@@H](Cc2ccccc2C(F)(F)F)C(=O)N2CCC(N3C(=O)C(C)(C)c4ccccc43)CC2)C1` [Example 92, (S)-N-((S)-1-(4-(3,3-dimethyl-2-oxoindolin-1-yl)piperidin-1-yl)-1-oxo-3-(2-(trifluoromethyl)phenyl)propan-2-yl)-3-(methylamino)pyrrolidine-1-carboxamide] registered an EC50 not above 10 nM.
For the molecule `CC1(C)C(=O)N(C2CCN(C(=O)[C@H](CCc3ccccc3)NC(=O)CCNC3CCCC3)CC2)c2ccccc21` [Example 14, (S)-3-(cyclopentylamino)-N-(1-(4-(3,3-dimethyl-2-oxoindolin-1-yl)piperidin-1-yl)-1-oxo-4-phenylbutan-2-yl)propanamide], the EC50 was not above 10 nM.
Consider `CC1(C)C(=O)N(C2CCN(C(=O)[C@H](CCc3ccccc3)NC(=O)N[C@H]3CCNC3)CC2)c2ccccc21` [Example 57, 1-((S)-1-(4-(3,3-dimethyl-2-oxo-indolin-1-yl)piperidin-1-yl)-1-oxo-4-phenylbutan-2-yl)-3-((S)-pyrrolidin-3-yl)urea], for which the EC50 is not above 10 nM.
On the same count and under the same terms, as for `CC1(C)C(=O)N(C2CCN(C(=O)[C@H](CCc3ccccc3)NC(=O)NC[C@H]3CCCN3)CC2)c2ccccc21` [Example 51, 1-((S)-1-(4-(3,3-dimethyl-2-oxo-indolin-1-yl)piperidin-1-yl)-1-oxo-4-phenylbutan-2-yl)-3-((R)-pyrrolidin-2-ylmethyl)urea], the figure is not above 10 nM.
The molecule `CN[C@@H]1CC[C@H](C(=O)N[C@@H](Cc2ccc(OC)cc2)C(=O)N2CCC(N3C(=O)C(C)(C)c4ccccc43)CC2)C1` [Example 37, (1S,3R)-N-((S)-1-(4-(3,3-dimethyl-2-oxoindolin-1-yl)piperidin-1-yl)-3-(4-methoxyphenyl)-1-oxopropan-2-yl)-3-(methylamino)cyclopentanecarboxamide] had an EC50 not above 10 nM.
The molecule `CC1(C)C(=O)N(C2CCN(C(=O)[C@H](CCc3ccccc3)NC(=O)CC3(N)CCC3)CC2)c2ccccc21` [Example 6, (S)-2-(1-aminocyclobutyl)-N-(1-(4-(3,3-dimethyl-2-oxoindolin-1-yl)piperidin-1-yl)-1-oxo-4-phenylbutan-2-yl)acetamide] yielded a 50% effective concentration (EC50) not above 10 nM.
Molecule `CN(C1CC1)[C@H]1CCN(C(=O)N[C@@H](CCc2ccccc2)C(=O)N2CCC(N3C(=O)C(C)(C)c4ccccc43)CC2)C1` [Example 63, (S)-3-(cyclopropyl(methyl)amino)-N-((S)-1-(4-(3,3-dimethyl-2-oxo-indolin-1-yl)piperidin-1-yl)-1-oxo-4-phenylbutan-2-yl)pyrrolidine-1-carboxamide] registered an EC50 not above 10 nM.
With `CC1(C)C(=O)N(C2CCN(C(=O)[C@H](CCc3ccccc3)NC(=O)[C@@H]3CCCCN3)CC2)c2ccccc21` [Example 2, (S)-N-((S)-1-(4-(3,3-dimethyl-2-oxoindolin-1-yl)piperidin-1-yl)-1-oxo-4-phenylbutan-2-yl)piperidine-2-carboxamide], the EC50 was not above 10 nM.

Staying with this experiment, now noted: ED50 (nM), Table 15; functional activity toward GPR38 (motilin receptor), (S) versus (R) amino acid linker.
As for `CN[C@H]1CCN(C(=O)N[C@@H](CCc2ccccc2)C(=O)N2CCC(N3C(=O)C(C)(C)c4ccccc43)CC2)C1` [Example 47, (S)—N—((S)-1-(4-(3,3-dimethyl-2-oxoindolin-1-yl)piperidin-1-yl)-1-oxo-4-phenylbutan-2-yl)-3-(methylamino)pyrrolidine-1-carboxamide], the midpoint of the response, the EC50, lay at 0.98 nM.
